Data reported in article PMC5486603, “Toward molecular imaging of the free fatty acid receptor 1” (Acta Diabetologica, 2017).
Entries after “also recorded” stand apart in the source; their conditions may differ. One block for each molecule: values may come before it.

Tests used:
FFAR1 [1] = biological target: T1, FFAR1 (Rattus norvegicus, UniProt Q8K3T4); assay: In vitro radioligand binding in INS-1 xenograft tissue homogenate; conditions: for off-target (non-displaceable) binding: 2 nM [3H]AZ1 or [3H]AZ2, 4 nM [3H]TAK-875, 10 µM unlabeled ligand for non-specific binding; for specific bound radiolabeled ligand (FFAR1 density): 2 nM radiolabeled ligand
T1 construct: 50–100 mg INS-1 xenografts were homogenized using a Polytron tissue homogenizer; from tissue; host or cells: INS-1 (rat insulinoma) xenograft tumours grown subcutaneously in Balbc nu/nu mice, homogenate
T1 sequence (Q8K3T4 whole entry): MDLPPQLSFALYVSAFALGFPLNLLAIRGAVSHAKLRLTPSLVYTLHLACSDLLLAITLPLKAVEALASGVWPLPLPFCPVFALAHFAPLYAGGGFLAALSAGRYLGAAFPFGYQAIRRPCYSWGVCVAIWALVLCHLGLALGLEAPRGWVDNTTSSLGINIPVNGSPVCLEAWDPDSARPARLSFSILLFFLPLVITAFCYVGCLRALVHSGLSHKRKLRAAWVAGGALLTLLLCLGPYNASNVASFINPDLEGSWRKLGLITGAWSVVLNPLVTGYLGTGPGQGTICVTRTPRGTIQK
Experimental: Rat insulinoma cell line INS-1 xenografts, explanted from immunodeficient mice postmortem, were used as a model of beta cells. Briefly, approximately 2 million INS-1 cells were injected subcutaneously in the right flank of Balbc nu/nu mice. Tumor growth was monitored by palpation, and when tumor diameter was 10 mm, the animals were euthanized and the INS-1 tumor explanted.
(§1) Isolated endocrine (75–95% islet purity) and exocrine tissues were homogenized in ice-cold 0.32 M sucrose by hand using a Dounce glass homogenizer to a final concentration of 6 mg/ml. 50–100 mg INS-1 xenografts were homogenized using a Polytron tissue homogenizer (Polytron® PT 3000, Kinematica AG, Littau-Luzern, Switzerland) in ice-cold 0.32 M sucrose at a concentration of 6 mg/ml and then by hand using a Dounce glass homogenizer. Protein concentration was determined using Bio-Rad Protein Assay (Bio-Rad Laboratories, Hercules, CA) with bovine serum albumin as standard. Aliquots of the homogenates were stored at −80 °C until used.
(§2) One milligram of homogenized endocrine and exocrine tissue and 2 mg insulinoma tissue was incubated for 2 h at room temperature with 2 nM [^3H]AZ1 or 2 nM [^3H]AZ2 and PBS in a final incubation volume of 1 ml. Two milligram insulinoma tissue was incubated for 2 h at room temperature with 4 nM [^3H]TAK-875 and 50 mM TRIS (pH 7.4) in a final incubation volume of 1 ml. All three ligands were dissolved in ethanol. 10 µM of unlabeled AZ1 or TAK-875 was added for determination of non-specific binding. The samples were filtered using a Brandel M-48 cell harvester with Whatman GF/C filter (presoaked with PBS or 50 mM TRIS) and washed four times with 3 ml PBS or 50 mM TRIS (room temperature). Filters were put into scintillation vials, dried for 30 min before adding 10 ml Ultima Gold scintillation fluid (Perkin Elmer, Waltham, MA). The filters were shaken for 60 min and then counted in a β-counter (Packard Scintillator Tri-Carb 2100TR). The K d and B max values for [^3H]AZ1 binding were determined using concentrations of the tritiated ligand from 1 to 20 nM. All assay concentrations were replicated in triplicate, both total binding and non-specific binding.
(§3) The specific binding for each concentration of radiolabeled ligand was calculated by subtracting the non-specific binding (average of three replicates) from the total binding (average of three replicates), and expressed as fmol or pmol/mg protein. The specific binding data were analyzed with curve-fitting software (GraphPad Prism version 5.04) to obtain K d and B max values.

FFAR1 [2] = biological target: T2, FFAR1 (Homo sapiens, UniProt O14842); assay: In vitro radioligand binding and saturation binding in human exocrine pancreatic tissue homogenate; parameters: Isolated endocrine (75–95% islet purity) and exocrine tissues were homogenized in ice-cold 0.32 M sucrose; from tissue; host or cells: human exocrine pancreatic tissue, homogenate; conditions: for receptor specific binding: human pancreatic exocrine tissue, 2 nM labeled ligand
T2 sequence (O14842 whole entry): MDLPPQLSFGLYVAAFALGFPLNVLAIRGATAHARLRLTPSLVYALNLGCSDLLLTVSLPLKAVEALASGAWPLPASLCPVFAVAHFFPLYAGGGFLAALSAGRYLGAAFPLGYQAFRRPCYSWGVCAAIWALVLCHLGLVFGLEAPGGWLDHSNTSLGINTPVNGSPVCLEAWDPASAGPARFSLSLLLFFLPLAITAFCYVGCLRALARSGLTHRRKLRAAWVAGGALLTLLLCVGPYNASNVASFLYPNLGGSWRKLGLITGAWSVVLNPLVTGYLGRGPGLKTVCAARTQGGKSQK
Experimental: (§4) Isolated pancreatic islets and exocrine tissue were obtained within the Nordic network for Clinical Islet Transplantation laboratory in Uppsala, Sweden. The use of human tissue was approved by the Uppsala Ethical Review Board (#2011/473, #Ups 02-577).
as §1, §2, §3

FFAR1 [3] = biological target: T2, FFAR1; assay: In vitro radioligand binding and saturation binding in human islets of Langerhans homogenate; parameters: Isolated endocrine (75–95% islet purity) and exocrine tissues were homogenized in ice-cold 0.32 M sucrose; from tissue; host or cells: human isolated pancreatic islets (75–95% purity), homogenate; conditions: for islet-to-exocrine ratio: human islets vs human exocrine tissue; for FFAR1 density by specific binding: isolated human islets of Langerhans
Experimental: as §4, §1, §2, §3

mouse GPR40 receptor = biological target: mouse GPR40 receptor; parameters: method as in data on file, AstraZeneca; conditions: mouse GPR40 overexpressing HEK293 cells, IP-One Tb HTRF; ref data on file, AstraZeneca; cited from earlier work
[4] = parameters: method as in NCT01609582; conditions: oral dosing of 50 mg daily, individuals with Type 2 diabetes with cardiovascular risk factors, phase 3; ref NCT01609582; cited from earlier work
[5] = human exocrine tissue, representative saturation binding experiment (Fig. 5b)
[6] = human islets, representative saturation binding experiment (Fig. 5a)

off-target (non-displaceable) binding (FFAR1 [1]): decreased | specific bound radiolabeled ligand (FFAR1 density) (FFAR1 [1]): 177 fmol/mg protein | receptor specific binding (FFAR1 [2]): below 1000 fmol/mg protein | islet-to-exocrine ratio (FFAR1 [3]; 2 nM labeled ligand): 1.65 | FFAR1 density by specific binding (FFAR1 [3]; 2 nM labeled ligand): approximately 1600 fmol/mg protein
SMILES: [3H]c1cc([3H])c(OCc2nc(-n3cc(C)cn3)nc(N3CCOCC3)c2[3H])cc1Cl [[^3H]AZ2]

off-target (non-displaceable) binding (FFAR1 [1]): decreased; also recorded: least | specific bound radiolabeled ligand (FFAR1 density) (FFAR1 [1]): 132 fmol/mg protein | specific binding (FFAR1 [1]; incubation dose 2 nM): approximately 50% | Bmax (FFAR1 [2]; [5]): 15.8 pmol/mg protein | Kd (FFAR1 [2]; [5]): 26.4 nM | Kd (FFAR1 [2]; human exocrine tissue, saturation binding 1 to 20 nM, n = 5, mean ± SEM): 19.7 ± 8.4 nM | B max (FFAR1 [2]; human exocrine tissue, saturation binding, n = 5, mean ± SEM): 13.6 ± 2.5 pmol/mg protein | receptor specific binding (FFAR1 [2]): below 1000 fmol/mg protein | higher FFAR1 binding in human islets compared to human exocrine tissue (FFAR1 [3]; 2 nM labeled ligand): 30% | non-specific binding in different pancreatic compartments (FFAR1 [3]; human islets vs exocrine tissue): little difference | islet-to-exocrine ratio (FFAR1 [3]; 2 nM labeled ligand): 1.3 | Bmax (FFAR1 [3]; [6]): 6.3 pmol/mg protein | Kd (FFAR1 [3]; [6]): 15.8 nM | Kd (FFAR1 [3]; human islets, saturation binding 1 to 20 nM, n = 3, mean ± SEM): 10.6 ± 1.5 nM | B max (FFAR1 [3]; human islets, saturation binding, n = 3, mean ± SEM): 7.0 ± 2.0 pmol/mg protein | FFAR1 density by specific binding (FFAR1 [3]; 2 nM labeled ligand): approximately 1150 fmol/mg protein
SMILES: [3H]c1cc([3H])c(OCc2nc(-n3cc(C)cn3)nc(N3CCOCC3)c2[3H])cc1F [[^3H]AZ1]

measurement of FFAR1 density (FFAR1 [1]; 4 nM [3H]TAK-875): severely underestimated
SMILES: [3H]c1cc2c(c([3H])c1OCc1cccc(-c3c(C)cc(OCCCS(C)(=O)=O)c([3H])c3C)c1)OC[C@H]2CC(=O)O [[^3H]TAK-875, reference compound]
off-target (non-displaceable) binding (FFAR1 [1]): high non-specific off-target binding; also recorded: most off-target binding

SMILES: Cc1cc(OCCCS(C)(=O)=O)cc(C)c1-c1cccc(COc2ccc3c(c2)OC[C@H]3CC(=O)O)c1 [TAK-875, fasiglifam]
EC50 (mouse GPR40 receptor): > 37500 nM | side effects [4]: suspected hepatic toxic side effects
